Assays:
S. aureus = assay: Kirby-Bauer disk diffusion susceptibility test; format: cell-based, Staphylococcus aureus; note: key: I = intermediate activity; S = susceptibility; R = Resistance
S. epidermidis = assay: Kirby-Bauer disk diffusion susceptibility test; format: cell-based, Staphylococcus epidermidis; note: key: I = intermediate activity; S = susceptibility; R = Resistance
T. pulmonis = assay: Kirby-Bauer disk diffusion susceptibility test; format: cell-based, Tsukamurella pulmonis
N. carnea = assay: Kirby-Bauer disk diffusion susceptibility test; format: cell-based, Nocardia carnea
N. cyriacigeorgica = assay: Kirby-Bauer disk diffusion susceptibility test; format: cell-based
A. baumannii = assay: Kirby-Bauer disk diffusion susceptibility test; format: cell-based, Acinetobacter baumannii; note: key: I = intermediate activity; S = susceptibility; R = Resistance
B. cereus = assay: Kirby-Bauer disk diffusion susceptibility test; format: cell-based, Bacillus cereus; note: key: I = intermediate activity; S = susceptibility; R = Resistance
A. fumigatus = A. fumigatus AFu-001; cited from earlier work; note: key: I = intermediate activity; S = susceptibility; R = Resistance
A. flavus = A. flavus AF-001; cited from earlier work; note: key: I = intermediate activity; S = susceptibility; R = Resistance
A. terreus = A. terreus ATe-001; cited from earlier work; note: key: I = intermediate activity; S = susceptibility; R = Resistance
C. parapsilosis = C. parapsilosis CP-007; cited from earlier work; note: key: I = intermediate activity; S = susceptibility; R = Resistance
M. fortuitum = assay: Kirby-Bauer disk diffusion susceptibility test; note: key: I = intermediate activity; S = susceptibility; R = Resistance; format: cell-based; conditions: M. fortuitum strain 1080, isolation year 2011
M. chelonae = assay: Kirby-Bauer disk diffusion susceptibility test; format: cell-based; conditions: M. chelonae strain 870, isolation year 2011
M. abscessus = assay: Kirby-Bauer disk diffusion susceptibility test; note: key: I = intermediate activity; S = susceptibility; R = Resistance; format: cell-based, Mycobacterium abscessus; conditions: M. abscessus strain 690, isolation year 2012
[1] = system: equine herpes virus type 1 (EHV-1); assay: Viral titer reduction; format: cell-based; conditions: 10 μg/ml
[2] = S. aureus strain 282, isolation year 2005
[3] = S. aureus strain 890, isolation year 2010
[4] = S. epidermidis strain 188, isolation year 2009
[5] = S. epidermidis strain 982, isolation year 2006
[6] = T. pulmonis strain 40, isolation year 2015
[7] = T. pulmonis strain 1991, isolation year 2009
[8] = N. carnea strain 40, isolation year 2011
[9] = N. carnea strain 769, isolation year 2009
[10] = N. cyriacigeorgica strain 30, isolation year 2005
[11] = N. cyriacigeorgica strain 199, isolation year 2005
[12] = A. baumannii strain 300, isolation year 2001
[13] = A. baumannii strain 1301, isolation year 2009
[14] = B. cereus strain 25, isolation year 2014
[15] = B. cereus strain 182, isolation year 2013

Question: Which “Characteristics of strains: susceptibility or resistance” value (“Characteristics of strains” below) (S. aureus; [2]) does the source give for NCC[C@H](O)C(=O)N[C@@H]1C[C@H](N)[C@@H](O[C@H]2O[C@H](CN)[C@@H](O)[C@H](O)[C@H]2O)[C@H](O)[C@H]1O[C@H]1O[C@H](CO)[C@@H](O)[C@H](N)[C@H]1O [AMK, Amikacin] here?
Answer: S

Question: And the “Characteristics of strains” value (S. aureus; [3])?
Answer: S

Question: And the “Characteristics of strains” value (S. epidermidis; [4])?
Answer: S

Question: And the “Characteristics of strains” value (S. epidermidis; [5])?
Answer: S

Question: And the “Characteristics of strains” value (T. pulmonis; [6])?
Answer: R

Question: And the “Characteristics of strains” value (T. pulmonis; [7])?
Answer: S

Question: What about the “Characteristics of strains” value (N. carnea; [8]) of the same compound?
Answer: R

Question: And the “Characteristics of strains” value (N. carnea; [9])?
Answer: S

Question: And the “Characteristics of strains” value (N. cyriacigeorgica; [10])?
Answer: S

Question: What about the “Characteristics of strains” value (N. cyriacigeorgica; [11]) of the same compound?
Answer: R

Question: What about the “Characteristics of strains” value (A. baumannii; [12]) of the same compound?
Answer: R

Question: And the “Characteristics of strains” value (A. baumannii; [13])?
Answer: S

Question: Which “Characteristics of strains” value (A. baumannii; [12]) does the source give for CO/N=C(\C(=O)N[C@@H]1C(=O)N2C(C(=O)O)=C(CSc3nc(=O)c(O)nn3C)CS[C@H]12)c1csc(N)n1 [CEF, Ceftriazone] here?
Answer: R

Question: And the “Characteristics of strains” value (A. baumannii; [13])?
Answer: R

Question: For CCC[C@@H]1C[C@@H](C(=O)N[C@@H]([C@H]2O[C@H](SC)[C@H](O)[C@@H](O)[C@H]2O)[C@H](C)Cl)N(C)C1 [CLI, Clindamycin], which “Characteristics of strains” value (S. aureus; [2]) is on record?
Answer: R

Question: What about the “Characteristics of strains” value (S. aureus; [3]) of the same compound?
Answer: R

Question: What about the “Characteristics of strains” value (B. cereus; [14]) of the same compound?
Answer: R

Question: And the “Characteristics of strains” value (B. cereus; [15])?
Answer: R

Question: What about the “Characteristics of strains” value (S. epidermidis; [4]) of the same compound?
Answer: S

Question: And the “Characteristics of strains” value (S. epidermidis; [5])?
Answer: R

Question: Which “Characteristics of strains” value (T. pulmonis; [6]) does the source give for CO/N=C(\C(=O)N[C@@H]1C(=O)N2C(C(=O)O)=C(COC(C)=O)CS[C@H]12)c1csc(N)n1 [CTX, Cefotaxime] here?
Answer: R

Question: What about the “Characteristics of strains” value (T. pulmonis; [7]) of the same compound?
Answer: S

Question: And the “Characteristics of strains” value (N. carnea; [8])?
Answer: S

Question: What about the “Characteristics of strains” value (N. carnea; [9]) of the same compound?
Answer: S

Question: What about the “Characteristics of strains” value (N. cyriacigeorgica; [10]) of the same compound?
Answer: S

Question: And the “Characteristics of strains” value (N. cyriacigeorgica; [11])?
Answer: R

Question: Which “Characteristics of the strains: susceptibility class” value (shortened to “Characteristics of the strains”) (A. fumigatus) does the source give for Clc1ccccc1C(c1ccccc1)(c1ccccc1)n1ccnc1 [Clotrimazole] here?
Answer: S

Question: What about the “Characteristics of the strains” value (A. flavus) of the same compound?
Answer: S

Question: What about the “Characteristics of the strains” value (A. terreus) of the same compound?
Answer: S

Question: And the “Characteristics of the strains” value (C. parapsilosis)?
Answer: S

Question: With CC[C@H]1OC(=O)[C@H](C)[C@@H](O[C@H]2C[C@@](C)(OC)[C@@H](O)[C@H](C)O2)[C@H](C)[C@@H](O[C@@H]2O[C@H](C)C[C@H](N(C)C)[C@H]2O)[C@](C)(O)C[C@@H](C)C(=O)[C@H](C)[C@@H](O)[C@]1(C)O [ERI, Erythromycin] as the compound, how does the “Characteristics of strains” value (S. aureus; [2]) read?
Answer: R

Question: And the “Characteristics of strains” value (S. aureus; [3])?
Answer: R

Question: What about the “Characteristics of strains” value (B. cereus; [14]) of the same compound?
Answer: R

Question: What about the “Characteristics of strains” value (B. cereus; [15]) of the same compound?
Answer: R

Question: What about the “Characteristics of strains” value (S. epidermidis; [4]) of the same compound?
Answer: S

Question: What about the “Characteristics of strains” value (S. epidermidis; [5]) of the same compound?
Answer: R

Question: And the “Characteristics of strains” value (M. fortuitum)?
Answer: R

Question: And the “Characteristics of strains” value (M. chelonae)?
Answer: R

Question: What about the “Characteristics of strains” value (T. pulmonis; [6]) of the same compound?
Answer: R

Question: What about the “Characteristics of strains” value (T. pulmonis; [7]) of the same compound?
Answer: S

Question: What about the “Characteristics of strains” value (N. carnea; [8]) of the same compound?
Answer: R

Question: What about the “Characteristics of strains” value (N. carnea; [9]) of the same compound?
Answer: R

Question: What about the “Characteristics of strains” value (N. cyriacigeorgica; [10]) of the same compound?
Answer: R

Question: What about the “Characteristics of strains” value (N. cyriacigeorgica; [11]) of the same compound?
Answer: R

Question: What about the “Characteristics of strains” value (M. abscessus) of the same compound?
Answer: S

Question: For OC(Cn1cncn1)(Cn1cncn1)c1ccc(F)cc1F [Fluconazole], which “Characteristics of the strains” value (A. fumigatus) is on record?
Answer: R

Question: And the “Characteristics of the strains” value (A. flavus)?
Answer: R

Question: And the “Characteristics of the strains” value (A. terreus)?
Answer: R

Question: What about the “Characteristics of the strains” value (C. parapsilosis) of the same compound?
Answer: S

Question: With Nc1nc(O)c2ncn(COC(CO)CO)c2n1 [GCV, ganciclovir] as the compound, how does the “reduction of the titer (inhibition)” value [1] read?
Answer: 1.8 logarithms

Question: With C[C@@H](O)[C@H]1C(=O)N2C(C(=O)O)=C(SCCN=CN)C[C@H]12 [IMP, Imipenem] as the compound, how does the “Characteristics of strains” value (M. fortuitum) read?
Answer: R

Question: What about the “Characteristics of strains” value (M. chelonae) of the same compound?
Answer: R

Question: What about the “Characteristics of strains” value (T. pulmonis; [6]) of the same compound?
Answer: S

Question: And the “Characteristics of strains” value (T. pulmonis; [7])?
Answer: S

Question: And the “Characteristics of strains” value (N. carnea; [8])?
Answer: R

Question: And the “Characteristics of strains” value (N. carnea; [9])?
Answer: S

Question: What about the “Characteristics of strains” value (N. cyriacigeorgica; [10]) of the same compound?
Answer: S

Question: And the “Characteristics of strains” value (N. cyriacigeorgica; [11])?
Answer: R

Question: What about the “Characteristics of strains” value (A. baumannii; [12]) of the same compound?
Answer: R

Question: And the “Characteristics of strains” value (A. baumannii; [13])?
Answer: S

Question: What about the “Characteristics of strains” value (M. abscessus) of the same compound?
Answer: R

Question: For CC(=O)N1CCN(c2ccc(OCC3COC(Cn4ccnc4)(c4ccc(Cl)cc4Cl)O3)cc2)CC1 (stereo not shown) [Ketoconazole], which “Characteristics of the strains” value (A. fumigatus) is on record?
Answer: S

Question: What about the “Characteristics of the strains” value (A. flavus) of the same compound?
Answer: S

Question: What about the “Characteristics of the strains” value (A. terreus) of the same compound?
Answer: S

Question: And the “Characteristics of the strains” value (C. parapsilosis)?
Answer: S

Question: Which results are given for CC(=O)NC[C@H]1CN(c2ccc(N3CCOCC3)c(F)c2)C(=O)O1 [LIN, Linezolid]?
Answer: Characteristics of strains: susceptibility or resistance (M. fortuitum): R; Characteristics of strains: susceptibility or resistance (M. chelonae): R; Characteristics of strains: susceptibility or resistance (T. pulmonis; [6]): R; Characteristics of strains: susceptibility or resistance (T. pulmonis; [7]): S; Characteristics of strains: susceptibility or resistance (N. carnea; [8]): S; Characteristics of strains: susceptibility or resistance (N. carnea; [9]): S; Characteristics of strains: susceptibility or resistance (N. cyriacigeorgica; [10]): S; Characteristics of strains: susceptibility or resistance (N. cyriacigeorgica; [11]): S; Characteristics of strains: susceptibility or resistance (M. abscessus): S

Question: With C[C@@H](O)[C@H]1C(=O)N2C(C(=O)O)=C(S[C@@H]3CN[C@H](C(=O)N(C)C)C3)[C@H](C)[C@H]12 [MER, Meropenem] as the compound, how does the “Characteristics of strains” value (A. baumannii; [12]) read?
Answer: R

Question: And the “Characteristics of strains” value (A. baumannii; [13])?
Answer: S

Question: Which “Characteristics of strains” value (B. cereus; [14]) does the source give for CO[C@H]1/C=C/O[C@@]2(C)Oc3c(C)c(O)c4c(O)c(c(/C=N/N5CCN(C)CC5)c(O)c4c3C2=O)NC(=O)/C(C)=C\C=C\[C@H](C)[C@H](O)[C@@H](C)[C@@H](O)[C@@H](C)[C@H](OC(C)=O)[C@@H]1C [RIF, Rifampicin] here?
Answer: S

Question: And the “Characteristics of strains” value (B. cereus; [15])?
Answer: S

Question: For CN(C)[C@@H]1C(O)=C(C(N)=O)C(=O)[C@@]2(O)C(O)=C3C(=O)c4c(O)cccc4[C@@](C)(O)[C@H]3C[C@@H]12 [TET, Tetracycline], which “Characteristics of strains” value (S. aureus; [2]) is on record?
Answer: S

Question: What about the “Characteristics of strains” value (S. aureus; [3]) of the same compound?
Answer: R

Question: And the “Characteristics of strains” value (B. cereus; [14])?
Answer: R

Question: And the “Characteristics of strains” value (B. cereus; [15])?
Answer: S

Question: What about the “Characteristics of strains” value (S. epidermidis; [4]) of the same compound?
Answer: S

Question: What about the “Characteristics of strains” value (S. epidermidis; [5]) of the same compound?
Answer: S

Question: Which “Characteristics of strains” value (A. baumannii; [12]) does the source give for NC[C@H]1O[C@H](O[C@H]2[C@H](O)[C@@H](O[C@H]3O[C@H](CO)[C@@H](O)[C@H](N)[C@H]3O)[C@H](N)C[C@@H]2N)[C@H](N)C[C@@H]1O [TOB, Tobramycin] here?
Answer: S

Question: What about the “Characteristics of strains” value (A. baumannii; [13]) of the same compound?
Answer: S

Question: Which results are given for CN[C@H](CC(C)C)C(=O)N[C@H]1C(=O)N[C@@H](CC(N)=O)C(=O)N[C@H]2C(=O)N[C@H]3C(=O)N[C@H](C(=O)N[C@H](C(=O)O)c4cc(O)cc(O)c4-c4cc3ccc4O)[C@H](O)c3ccc(c(Cl)c3)Oc3cc2cc(c3O[C@@H]2O[C@H](CO)[C@@H](O)[C@H](O)[C@H]2O[C@H]2C[C@](C)(N)[C@H](O)[C@H](C)O2)Oc2ccc(cc2Cl)[C@H]1O [VAN, Vancomycin]?
Answer: Characteristics of strains: susceptibility or resistance (S. aureus; [2]): S; Characteristics of strains: susceptibility or resistance (S. aureus; [3]): S; Characteristics of strains: susceptibility or resistance (B. cereus; [14]): S; Characteristics of strains: susceptibility or resistance (B. cereus; [15]): S; Characteristics of strains: susceptibility or resistance (S. epidermidis; [4]): S; Characteristics of strains: susceptibility or resistance (S. epidermidis; [5]): S

Question: Which “Characteristics of strains” value (S. aureus; [2]) does the source give for Gentamicin here?
Answer: R

Question: What about the “Characteristics of strains” value (S. aureus; [3]) of the same compound?
Answer: R

Question: What about the “Characteristics of strains” value (S. epidermidis; [4]) of the same compound?
Answer: S

Question: And the “Characteristics of strains” value (S. epidermidis; [5])?
Answer: R

Question: Which results are given for Penicillin?
Answer: Characteristics of strains: susceptibility or resistance (B. cereus; [14]): S; Characteristics of strains: susceptibility or resistance (B. cereus; [15]): S; Characteristics of strains: susceptibility or resistance (M. fortuitum): R; Characteristics of strains: susceptibility or resistance (M. abscessus): R

— patent US11241440B2, “Dihydrooxadiazine compounds for treating infections and cancer” (VALORALIA I MÁS D, SL, priority 2016, dated 2022)
